For the experiment, the target named is recombinant human His-ATG7 enzyme (Homo sapiens (Human), UniProt O95352). The experiment is described as follows: ATG7 Enzyme Assay (HTRF/FRET, ATG3-GST and Flag-Gabarap). It is filed as biochemical. As to conditions: for inhibition at 0.123 µM / inhibition at 0.111 µM / inhibition at 0.069 µM: read-out: Percent Inhibition; for inhibition at 0.069 µM: Concentration 0.069 μM. On the procedure: Example 97: ATG7 Enzyme Assay
The total volume of the ATG7 enzymatic assay is 50 μL and contains 50 mM HEPES Hemisodium (pH 7.5), 0.05% BSA, 0.01% Tween-20, 25 mM NaCl, 5 mM MgCl2, 10 μM ATP, 250 μM GSH, 5 nM ATG3-GST, 5 nM Flag-Gabarap, 100 μM TCEP and 0.15 nM recombinant human His-ATG7 enzyme. The enzymatic reaction mixture, with and without inhibitor, was incubated at 24° C. for 105 min in a 384-well plate before termination with […] of Stop/Detection buffer (0.1M HEPES Hemisodium pH 7.5, 0.05% Tween20, 20 mM EDTA, 410 mM KF, 0.53 nM Europium-Cryptate labeled monoclonal anti-Flag M2 Antibody (CisBio International) and 8.125 μg/ml PHYCOLINK goat anti-GST allophycocyanin (XL-APC) antibody (Prozyme)). After incubation for 2 hours at 24° C., quantification of FRET is performed on the Pherostar™ (BMG Labtech). Percentage inhibition values at a single concentration or enzyme inhibition (IC50) values are determined from those curves. One skilled in the art will appreciate that the values generated either as percentage inhibition at a single concentration or IC50 values are subject to experimental variation.

SMILES strings stand for the structures.

Chain of recombinant human His-ATG7 enzyme (O95352 whole entry): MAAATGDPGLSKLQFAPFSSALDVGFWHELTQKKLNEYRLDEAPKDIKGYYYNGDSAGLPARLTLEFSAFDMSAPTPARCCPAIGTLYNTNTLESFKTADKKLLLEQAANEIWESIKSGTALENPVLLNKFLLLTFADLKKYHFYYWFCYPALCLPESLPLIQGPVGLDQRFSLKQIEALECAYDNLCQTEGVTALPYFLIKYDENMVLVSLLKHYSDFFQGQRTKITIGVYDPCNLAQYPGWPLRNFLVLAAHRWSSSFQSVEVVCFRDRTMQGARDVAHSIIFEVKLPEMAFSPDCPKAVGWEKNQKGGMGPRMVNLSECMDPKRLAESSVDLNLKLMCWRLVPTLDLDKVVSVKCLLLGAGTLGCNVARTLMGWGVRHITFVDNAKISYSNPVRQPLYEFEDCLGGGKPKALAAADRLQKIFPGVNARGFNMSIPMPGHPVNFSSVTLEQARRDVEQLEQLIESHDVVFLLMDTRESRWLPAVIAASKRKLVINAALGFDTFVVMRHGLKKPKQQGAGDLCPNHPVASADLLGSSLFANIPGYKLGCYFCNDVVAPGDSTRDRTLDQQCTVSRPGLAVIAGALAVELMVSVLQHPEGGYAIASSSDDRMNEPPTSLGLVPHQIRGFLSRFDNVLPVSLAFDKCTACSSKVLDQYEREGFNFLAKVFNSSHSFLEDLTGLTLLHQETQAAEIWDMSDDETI

For the molecule `CC(O)CSc1nn([C@@H]2O[C@H](COS(N)(=O)=O)[C@@H](O)[C@H]2O)c2ncnc(N)c12` (single isomer, unassigned) [Compound I-55a, [(2R,3S,4R,5R)-5-(4-amino-3-{[(2R)-2-hydroxypropyl]sulfanyl}-1H-pyrazolo[3,4-d]pyrimidin-1-yl)-3,4-dihydroxytetrahydrofuran-2-yl]methyl sulfamate or [(2R,3S,4R,5R)-5-(4-amino-3-{[(2S)-2-hydroxypropyl]sulfanyl}-1H-pyrazolo[3,4-d]pyrimidin-1-yl)-3,4-dihydroxytetrahydrofuran-2-yl]methyl Sulfamate], the IC50 (as a rule, the concentration that gives 50% inhibition) fell in the range of 50 to 100 nM. The “Percent Inhibition” value (Concentration 0.123 μM) is 71%.
For `CC(O)CSc1nn([C@@H]2O[C@H](COS(N)(=O)=O)[C@@H](O)[C@H]2O)c2ncnc(N)c12` (single isomer, unassigned) [Compound I-55b, [(2R,3S,4R,5R)-5-(4-amino-3-{[(2R)-2-hydroxypropyl]sulfanyl}-1H-pyrazolo[3,4-d]pyrimidin-1-yl)-3,4-dihydroxytetrahydrofuran-2-yl]methyl sulfamate or [(2R,3S,4R,5R)-5-(4-amino-3-{[(2S)-2-hydroxypropyl]sulfanyl}-1H-pyrazolo[3,4-d]pyrimidin-1-yl)-3,4-dihydroxytetrahydrofuran-2-yl]methyl Sulfamate], the IC50 lay in the range of 50 to 100 nM. Moreover, under “Concentration 0.123 μM”, the inhibition (usually the percentage by which the read-out fell short of the control) at 0.123 µM came to 68%.
`CCC(C)Sc1nn([C@@H]2O[C@H](COS(N)(=O)=O)[C@@H](O)[C@@H]2F)c2ncnc(N)c12` (single isomer, unassigned) [Compound I-136a]: the IC50 fell in the range of 50 to 100 nM. Also, the “Percent Inhibition” value (Concentration 0.111 μM) worked out at 63%.
As to `CCC(C)Sc1nn([C@@H]2O[C@H](COS(N)(=O)=O)[C@@H](O)[C@@H]2F)c2ncnc(N)c12` (single isomer, unassigned) [Compound I-136b], the IC50 lay within 50 to 100 nM. Moreover, the inhibition at 0.111 µM (Concentration 0.111 μM) worked out at 61%.
Regarding `COC(=O)c1nn([C@@H]2O[C@H](COS(N)(=O)=O)C(O)C2O)c2ncnc(N)c12` (stereo in doubt) [Compound I-20, methyl 4-amino-1-{(2R,3S,4R,5R)-3,4-dihydroxy-5-[(sulfamoyloxy)methyl]tetrahydrofuran-2-yl}-1H-pyrazolo[3,4-d]pyrimidine-3-carboxylate], the IC50 was 100 to 500 nM. Moreover, the inhibition at 0.123 µM (Concentration 0.123 μM) was found to be 45%.
Take `Cc1ccc(Sc2nn([C@H]3C[C@H](O)C(COS(N)(=O)=O)O3)c3ncnc(N)c23)c(F)c1` (stereo in doubt) [Compound I-211, [(2S,3S,5R)-5-{4-amino-3-[(2-fluoro-4-methylphenyl)sulfanyl]-1H-pyrazolo[3,4-d]pyrimidin-1-yl}-3-hydroxytetrahydrofuran-2-yl]methyl Sulfamate]: the half-maximal inhibitory concentration (IC50) was 50 to 100 nM. Also, the “Percent Inhibition” value (Concentration 0.111 μM) came to 64%.
For `Nc1ncnc2c1cnn2[C@H]1C[C@H](O)C(COS(N)(=O)=O)O1` (stereo in doubt) [Compound I-226, [(2S,3S,5R)-5-(4-amino-1H-pyrazolo[3,4-d]pyrimidin-1-yl)-3-hydroxytetrahydrofuran-2-yl]methyl sulfamate], the IC50 is more than 500 nM. The inhibition at 0.111 µM (Concentration 0.111 μM) was 5%.
`COc1nn([C@@H]2O[C@H](COS(N)(=O)=O)[C@@H](O)[C@H]2O)c2ncnc(N)c12` [Compound I-1, [(2R,3S,4R,5R)-5-(4-amino-3-methoxy-1H-pyrazolo[3,4-d]pyrimidin-1-yl)-3,4-dihydroxytetrahydrofuran-2-yl]methyl sulfamate]: the IC50 was in the range of 50 to 100 nM. The inhibition at 0.123 µM (Concentration 0.123 μM) stood at 51%.
For `Cc1nn([C@@H]2O[C@H](COS(N)(=O)=O)[C@@H](O)[C@H]2O)c2ncnc(N)c12` [Compound I-2, [(2R,3S,4R,5R)-5-(4-amino-3-methyl-1H-pyrazolo[3,4-d]pyrimidin-1-yl)-3,4-dihydroxytetrahydrofuran-2-yl]methyl Sulfamate], the IC50 was 100 to 500 nM. For the same molecule, the inhibition at 0.123 µM (Concentration 0.123 μM) came to 42%.
Consider `CC(C)c1nn([C@@H]2O[C@H](COS(N)(=O)=O)[C@@H](O)[C@H]2O)c2ncnc(N)c12` [Compound I-3, [(2R,3S,4R,5R)-5-(4-amino-3-isopropyl-1H-pyrazolo[3,4-d]pyrimidin-1-yl)-3,4-dihydroxytetrahydrofuran-2-yl]methyl Sulfamate], for which the IC50 lay in the range of 100 to 500 nM and the inhibition at 0.069 µM worked out at 24%.
`Nc1ncnc2c1c(COCc1ccccc1)nn2[C@@H]1O[C@H](COS(N)(=O)=O)[C@@H](O)[C@H]1O` [Compound I-4, [(2R,3S,4R,5R)-5-{4-amino-3-[(benzyloxy)methyl]-1H-pyrazolo[3,4-d]pyrimidin-1-yl}-3,4-dihydroxytetrahydrofuran-2-yl]methyl Sulfamate]: the IC50 lay in the range of 100 to 500 nM and the inhibition at 0.069 µM came to 32%.
As for `CCOc1nn([C@@H]2O[C@H](COS(N)(=O)=O)[C@@H](O)[C@H]2O)c2ncnc(N)c12` [Compound I-5, [(2R,3S,4R,5R)-5-(4-amino-3-ethoxy-1H-pyrazolo[3,4-d]pyrimidin-1-yl)-3,4-dihydroxytetrahydrofuran-2-yl]methyl Sulfamate], the IC50 was in the range of 100 to 500 nM and the inhibition at 0.069 µM worked out at 23%.
For `CCc1nn([C@@H]2O[C@H](COS(N)(=O)=O)[C@@H](O)[C@H]2O)c2ncnc(N)c12` [Compound I-6, [(2R,3S,4R,5R)-5-(4-amino-3-ethyl-1H-pyrazolo[3,4-d]pyrimidin-1-yl)-3,4-dihydroxytetrahydrofuran-2-yl]methyl Sulfamate], the IC50 fell in the range of 100 to 500 nM and the inhibition at 0.069 µM was found to be 31%.
`CC(C)Oc1nn([C@@H]2O[C@H](COS(N)(=O)=O)[C@@H](O)[C@H]2O)c2ncnc(N)c12` [Compound I-7, [(2R,3S,4R,5R)-5-(4-amino-3-isopropoxy-1H-pyrazolo[3,4-d]pyrimidin-1-yl)-3,4-dihydroxytetrahydrofuran-2-yl]methyl sulfamate]: the IC50 was more than 500 nM and the inhibition at 0.069 µM was 7%.
The corresponding values for `Nc1ncnc2c1c(CO)nn2[C@@H]1O[C@H](COS(N)(=O)=O)[C@@H](O)[C@H]1O` [Compound I-8, {(2R,3S,4R,5R)-5-[4-amino-3-(hydroxymethyl)-1H-pyrazolo[3,4-d]pyrimidin-1-yl]-3,4-dihydroxytetrahydrofuran-2-yl}methyl Sulfamate] are 100 to 500 nM and 32%.
The like results for `C#Cc1nn([C@@H]2O[C@H](COS(N)(=O)=O)[C@@H](O)[C@H]2O)c2ncnc(N)c12` [Compound I-9, [(2R,3S,4R,5R)-5-(4-amino-3-ethynyl-1H-pyrazolo[3,4-d]pyrimidin-1-yl)-3,4-dihydroxytetrahydrofuran-2-yl]methyl Sulfamate] were, in that order, 50 to 100 nM and 52%.
The like results for `Nc1ncnc2c1c(C(F)(F)F)nn2[C@@H]1O[C@H](COS(N)(=O)=O)[C@@H](O)[C@H]1O` [Compound I-10, {(2R,3S,4R,5R)-5-[4-amino-3-(trifluoromethyl)-1H-pyrazolo[3,4-d]pyrimidin-1-yl]-3,4-dihydroxytetrahydrofuran-2-yl}methyl Sulfamate] were, in that order, 50 to 100 nM and 48%.

The record behind these values is US10865208B2, “ATG7 inhibitors and the uses thereof” (Millennium Pharmaceuticals, Inc., priority 2016, dated 2020).
